We go through 39 molecules from ChEMBL document CHEMBL4418308, “cGAS ANTAGONIST COMPOUNDS” (2017).

Where only a bound is given, the exact number is not on record here.

In assay [1] the target is T1, Cyclic GMP-AMP synthase (Homo sapiens, UniProt Q8N884). As to the kind of experiment: Inhibition of recombinant His6-SUMO tagged human CGAS expressed in Escherichia coli BL21/pLys cells incubated for 20 mins by Kinase Glo chemiluminescence assay. (In Kinase-Glo more light means more ATP remaining.)
Assay [2] has as its target T1, Cyclic GMP-AMP synthase. As to the kind of experiment: Inhibition of CGAS in human THP1 cells transfected with interferon stimulatory DNA and measured after 16 hrs by Gaussia luciferase reporter gene assay. It counts as cell-based.

T1 sequence (Q8N884 whole entry): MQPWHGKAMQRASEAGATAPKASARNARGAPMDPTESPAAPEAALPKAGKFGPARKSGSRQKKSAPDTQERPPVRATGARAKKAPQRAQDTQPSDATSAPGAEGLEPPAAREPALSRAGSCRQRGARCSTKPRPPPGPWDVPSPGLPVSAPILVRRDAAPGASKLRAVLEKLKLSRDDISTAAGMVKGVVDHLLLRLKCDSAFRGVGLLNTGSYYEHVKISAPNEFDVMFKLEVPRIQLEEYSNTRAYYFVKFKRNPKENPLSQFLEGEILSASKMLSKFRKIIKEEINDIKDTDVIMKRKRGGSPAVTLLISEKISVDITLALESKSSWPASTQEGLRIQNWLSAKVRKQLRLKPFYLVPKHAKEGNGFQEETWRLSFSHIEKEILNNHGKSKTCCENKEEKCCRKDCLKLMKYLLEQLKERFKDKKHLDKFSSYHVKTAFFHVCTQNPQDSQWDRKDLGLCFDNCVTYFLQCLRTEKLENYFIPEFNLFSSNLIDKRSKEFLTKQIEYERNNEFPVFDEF

Broadly, the IC50 is the concentration at which inhibition is half-maximal. Regarding `CCOc1cc(/C=C2\SC(=O)N(C)C2=O)c(Br)cc1O`, the IC50 is at most 0.5 µM at Cyclic GMP-AMP synthase [1] and at most 2.5 µM on Cyclic GMP-AMP synthase [2].
For the molecule `CN1C(=O)S/C(=C\c2cc(OCc3cncnc3)c(O)c(F)c2Br)C1=O`, the IC50 was at most 0.5 µM on Cyclic GMP-AMP synthase [1] and 2.5 to 10 µM against Cyclic GMP-AMP synthase [2].
Regarding `Cc1ncc(COc2cc(/C=C3\SC(=O)C(C)C3=O)c(Br)c(F)c2O)c(N)n1` (stereo not given), the values for the IC50 at Cyclic GMP-AMP synthase [1] and at Cyclic GMP-AMP synthase [2] were at most 0.5 µM and 2.5 to 10 µM, respectively.
As to `CN1C(=O)S/C(=C\c2cc(OCCc3cnc(N)nc3)c(O)cc2Br)C1=O`, the IC50 was at most 0.5 µM on Cyclic GMP-AMP synthase [1] and at most 2.5 µM on Cyclic GMP-AMP synthase [2].
As to `CN1C(=O)S/C(=C\c2cc(OCc3cnc(NCc4cccnc4)nc3)c(O)c(F)c2Br)C1=O`, the figures for the IC50 on Cyclic GMP-AMP synthase [1] and against Cyclic GMP-AMP synthase [2] were 0.5 to 10 µM and 2.5 to 10 µM, respectively.
Consider `COc1cc(/C=C2\SC(=S)N(C)C2=O)c(Br)cc1O`, for which the concentration for half-maximal inhibition (IC50) on Cyclic GMP-AMP synthase [1] was at most 0.5 µM; against Cyclic GMP-AMP synthase [2] it was 2.5 to 10 µM.
As to `Cc1ncc(COc2cc(/C=C3\Sc4ncccc4C3=O)c(Br)cc2O)cn1`, the IC50 is at most 0.5 µM on Cyclic GMP-AMP synthase [1] and 2.5 to 10 µM at Cyclic GMP-AMP synthase [2].
Take `COc1cc(/C=C2\Sc3ncccc3C2=O)c(Br)cc1O`: the IC50 was at most 0.5 µM on Cyclic GMP-AMP synthase [1] and 2.5 to 10 µM against Cyclic GMP-AMP synthase [2].
`O=C1/C(=C/c2cc(OCc3cnc(Cl)nc3)c(O)cc2Br)Sc2ncccc21`: the figures for the half-maximal inhibitory concentration (IC50) on Cyclic GMP-AMP synthase [1] and at Cyclic GMP-AMP synthase [2] were at most 0.5 µM and 2.5 to 10 µM, respectively.
As to `CN1C(=O)S/C(=C\c2cc(OCc3cccnc3)c(O)c(F)c2Br)C1=O`, the IC50 at Cyclic GMP-AMP synthase [1] was at most 0.5 µM; on Cyclic GMP-AMP synthase [2] it was 2.5 to 10 µM.
`CN1C(=O)S/C(=C\c2cc(O)c(O)cc2Br)C1=O`: the figures for the IC50 at Cyclic GMP-AMP synthase [1] and at Cyclic GMP-AMP synthase [2] were at least 10 µM and 2.5 to 10 µM, respectively.
`CCOc1cc(/C=C2\Sc3ncccc3C2=O)c(Br)cc1O`: the IC50 on Cyclic GMP-AMP synthase [1] is at most 0.5 µM; against Cyclic GMP-AMP synthase [2] it was 2.5 to 10 µM.
Turning to `CN1C(=O)S/C(=C\c2cc(OCc3cnc([S+](C)[O-])nc3N)c(O)c(F)c2Br)C1=O` (stereo not given), the IC50 was at most 0.5 µM at Cyclic GMP-AMP synthase [1] and at least 10 µM on Cyclic GMP-AMP synthase [2].
On the same counts, the results for `CN1C(=O)S/C(=C\c2cc(OCc3cncnc3N)c(O)c(F)c2Br)C1=O` are at most 0.5 µM and at least 10 µM.
Regarding `CN1C(=O)S/C(=C\c2cc(OCc3cccnc3)c(O)cc2Br)C1=O`, the IC50 on Cyclic GMP-AMP synthase [1] is at most 0.5 µM; against Cyclic GMP-AMP synthase [2] it was 2.5 to 10 µM.
Regarding `CN1C(=O)S/C(=C\c2cc(OCc3ccncc3)c(O)cc2Br)C1=O`, the IC50 at Cyclic GMP-AMP synthase [1] is 0.5 to 10 µM; on Cyclic GMP-AMP synthase [2], at most 2.5 µM.
Turning to `COc1cc(/C=C2\SC(=O)N(C)C2=O)c(Br)cc1NS(=O)(=O)c1ccccn1`, the values for the IC50 at Cyclic GMP-AMP synthase [1] and at Cyclic GMP-AMP synthase [2] were at least 10 µM and 2.5 to 10 µM, respectively.
For `CN1C(=O)S/C(=C\c2cc(OCc3cnc(Cl)nc3N)c(O)c(F)c2Br)C1=O`, the IC50 is at most 0.5 µM at Cyclic GMP-AMP synthase [1] and 2.5 to 10 µM at Cyclic GMP-AMP synthase [2].
Regarding `COc1cc(/C=c2\sc3nccn3c2=O)c(Br)cc1O`, the IC50 at Cyclic GMP-AMP synthase [1] is at most 0.5 µM; against Cyclic GMP-AMP synthase [2], 2.5 to 10 µM.
On the same counts, the results for `CC(Oc1cc(/C=C2\Sc3ncccc3C2=O)c(Br)c(F)c1O)c1cnc(N)nc1` (stereo not given) are at most 0.5 µM and 2.5 to 10 µM.
With `CN1C(=O)S/C(=C\c2cc(OCc3cnc(Cl)nc3)c(O)c(F)c2Br)C1=O`, the IC50 on Cyclic GMP-AMP synthase [1] is at least 10 µM; on Cyclic GMP-AMP synthase [2], 2.5 to 10 µM.
With `CN1C(=O)S/C(=C\c2cc(OCC(=O)c3cnc(N)nc3)c(O)c(F)c2Br)C1=O`, the IC50 at Cyclic GMP-AMP synthase [1] is 0.5 to 10 µM; against Cyclic GMP-AMP synthase [2], 2.5 to 10 µM.
As for `CCN1C(=O)S/C(=C\c2cc(OC)c(O)cc2Br)C1=O`, the IC50 fell in the range of 0.5 to 10 µM on Cyclic GMP-AMP synthase [1] and 2.5 to 10 µM at Cyclic GMP-AMP synthase [2].
In the same order, the values of `C#CCOc1cc(/C=C2\SC(=O)N(C)C2=O)c(Br)cc1O` are 0.5 to 10 µM and 2.5 to 10 µM.
In the case of `Cc1nc(N)ncc1COc1cc(/C=C2\Sc3ncccc3C2=O)c(Br)cc1O`, the IC50 on Cyclic GMP-AMP synthase [1] was at most 0.5 µM; on Cyclic GMP-AMP synthase [2], at most 2.5 µM.
Turning to `CC(Oc1cc(/C=C2\Sc3ncccc3C2=O)c(Br)cc1O)c1cnc(NCCO)nc1` (stereo not given), the concentration for half-maximal inhibition (IC50) is at most 0.5 µM on Cyclic GMP-AMP synthase [1] and 2.5 to 10 µM against Cyclic GMP-AMP synthase [2].
As for `CN1C(=O)S/C(=C\c2cc(OCc3cccc4[nH]ccc34)c(O)cc2Br)C1=O`, the IC50 at Cyclic GMP-AMP synthase [1] was 0.5 to 10 µM; at Cyclic GMP-AMP synthase [2] it was 2.5 to 10 µM.
Turning to `CN1C(=O)S/C(=C\c2cc3c(-c4ccc(N)cc4)c[nH]c3cc2Br)C1=O`, on Cyclic GMP-AMP synthase [1], the IC50 is 0.5 to 10 µM.
For the molecule `CN1C(=O)S/C(=C\c2cc(OCc3ccc(NC(=O)c4ccccn4)nc3)c(O)cc2Br)C1=O`, the half-maximal inhibitory concentration (IC50) on Cyclic GMP-AMP synthase [1] was at least 10 µM.
As to `CC(Oc1cc(/C=C2\SC(=O)N(C)C2=O)c(Br)c(F)c1O)c1cncnc1N` (stereo not given), the results for the concentration for half-maximal inhibition (IC50) on Cyclic GMP-AMP synthase [1] and at Cyclic GMP-AMP synthase [2] were 0.5 to 10 µM and at least 10 µM, respectively.
On the same counts, the results for `COc1cc(/C=C2\SC(=O)N(C)C2=O)c(Cl)cc1O` are at most 0.5 µM and at most 2.5 µM.
On to `CC(C)c1cc(/C=C2\SC(=O)N(C)C2=O)c(Br)cc1O`, for which, on Cyclic GMP-AMP synthase [1], the half-maximal inhibitory concentration (IC50) is at least 10 µM.
In the case of `COc1cc(/C=C2\Sc3ccccc3C2=O)c(Br)cc1O`, the IC50 is 0.5 to 10 µM at Cyclic GMP-AMP synthase [1] and at most 2.5 µM at Cyclic GMP-AMP synthase [2].
On the same counts, the results for `O=C1/C(=C/c2cc(OCc3cccnc3)c(O)cc2Br)Sc2ncccc21` are at most 0.5 µM and 2.5 to 10 µM.
Consider `CN1C(=O)S/C(=C\c2cc(OCc3cncc(NC(=O)c4cccnc4)c3)c(O)cc2Br)C1=O`, for which the IC50 at Cyclic GMP-AMP synthase [1] was at least 10 µM.
With `Cc1nc(N)ncc1C(C)Oc1cc(/C=C2\SC(=O)N(C)C2=O)c(Br)cc1O` (stereo not given), at Cyclic GMP-AMP synthase [1], the half-maximal inhibitory concentration (IC50) was at least 10 µM.
Same read-out and setting: the result for `CN1C(=O)S/C(=C\c2cc(OCc3ccnc(N)c3)c(O)cc2Br)C1=O` reads 0.5 to 10 µM; that for `CN1C(=O)S/C(=C\c2cc(OCc3cnc(Nc4ccccn4)nc3)c(O)cc2Br)C1=O`, at least 10 µM; that for `CN1C(=O)S/C(=C\c2cc(O)c(O)cc2F)C1=O`, at least 10 µM.
